Blank lines part the entries; values can stand above or below the compound they belong to. Activity calls are given as the source filed them. No cut-off for these calls is given here.
Columns and labels:
Assay type in all cases: cell-based
HEK293 [1] = test: Inhibition of cross-linking of human Pgp TM1 L65R/TM6 L339C/TM7 F728 mutant expressed in HEK293 cells assessed as drug level causing 50% inhibition of cross linking by immunoblot
HEK293 [2] = test: Inhibition of cross-linking of human Pgp TM6 L339C/TM7 F728C mutant expressed in HEK293 cells assessed as drug level causing 50% inhibition of cross linking by immunoblot
[3] = biological target: ATP-dependent translocase ABCB1 (Homo sapiens, UniProt P08183, Q195C); test: Increase in ATPase activity of human histidine-tagged Pgp TM3 Q195C mutant expressed in HEK293 cells at 2 mM relative to control; conditions: hek293, 2000 µM
Sequence of ATP-dependent translocase ABCB1 (Homo sapiens, UniProt P08183, Q195C) (P08183 whole entry Q195C): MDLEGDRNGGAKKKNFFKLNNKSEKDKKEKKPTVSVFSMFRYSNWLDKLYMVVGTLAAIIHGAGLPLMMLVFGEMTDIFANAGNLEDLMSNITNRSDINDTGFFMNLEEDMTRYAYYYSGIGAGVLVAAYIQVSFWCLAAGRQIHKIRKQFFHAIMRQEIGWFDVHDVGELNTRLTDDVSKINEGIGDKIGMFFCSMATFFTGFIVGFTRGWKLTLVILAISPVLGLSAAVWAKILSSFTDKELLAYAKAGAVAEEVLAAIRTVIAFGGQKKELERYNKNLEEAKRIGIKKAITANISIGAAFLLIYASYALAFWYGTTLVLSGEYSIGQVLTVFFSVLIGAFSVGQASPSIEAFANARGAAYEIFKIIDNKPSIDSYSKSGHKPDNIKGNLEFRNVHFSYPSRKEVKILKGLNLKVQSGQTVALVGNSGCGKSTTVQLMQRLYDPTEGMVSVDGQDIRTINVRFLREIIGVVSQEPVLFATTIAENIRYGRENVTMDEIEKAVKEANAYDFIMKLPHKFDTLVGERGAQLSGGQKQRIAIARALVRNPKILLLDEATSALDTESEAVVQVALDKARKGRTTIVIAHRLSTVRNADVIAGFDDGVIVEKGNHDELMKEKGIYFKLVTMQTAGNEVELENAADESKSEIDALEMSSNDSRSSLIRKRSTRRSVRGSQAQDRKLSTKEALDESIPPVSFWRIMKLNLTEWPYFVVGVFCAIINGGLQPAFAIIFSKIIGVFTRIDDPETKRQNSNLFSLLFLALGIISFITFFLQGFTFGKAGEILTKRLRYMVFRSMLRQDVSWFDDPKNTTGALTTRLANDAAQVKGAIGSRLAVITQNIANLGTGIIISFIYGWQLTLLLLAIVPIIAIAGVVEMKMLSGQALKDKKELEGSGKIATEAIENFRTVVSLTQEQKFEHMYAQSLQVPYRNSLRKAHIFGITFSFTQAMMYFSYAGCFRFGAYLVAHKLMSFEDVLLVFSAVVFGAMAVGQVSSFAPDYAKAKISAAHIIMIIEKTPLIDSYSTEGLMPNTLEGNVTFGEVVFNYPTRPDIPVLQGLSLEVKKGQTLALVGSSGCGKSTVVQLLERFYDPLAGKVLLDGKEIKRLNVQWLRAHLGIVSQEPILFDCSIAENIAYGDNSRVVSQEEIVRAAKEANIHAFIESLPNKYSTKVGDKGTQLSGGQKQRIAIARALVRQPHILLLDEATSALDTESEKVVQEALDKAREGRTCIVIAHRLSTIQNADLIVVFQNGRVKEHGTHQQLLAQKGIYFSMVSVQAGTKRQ

[4] = biological target: ATP-dependent translocase ABCB1 (Homo sapiens, UniProt P08183, F728C/I306R/L339C); test: Inhibition of cross-linking of human Pgp TM5 I306R/TM6 L339C/TM7 F728C mutant expressed in HEK293 cells assessed as drug level causing 50% inhibition of cross linking by immunoblot; conditions: read-out: Activity
[5] = biological target: ATP-dependent translocase ABCB1 (Homo sapiens, UniProt P08183, F728C/L339C/T199R); test: Inhibition of cross-linking of human Pgp TM3 T199R/TM6 L339C/TM7 F728C mutant expressed in HEK293 cells assessed as drug level causing 50% inhibition of cross linking by immunoblot; conditions: read-out: Activity
Sequence of ATP-dependent translocase ABCB1 (Homo sapiens, UniProt P08183, F728C/L339C/T199R) (P08183 whole entry T199R/L339C/F728C): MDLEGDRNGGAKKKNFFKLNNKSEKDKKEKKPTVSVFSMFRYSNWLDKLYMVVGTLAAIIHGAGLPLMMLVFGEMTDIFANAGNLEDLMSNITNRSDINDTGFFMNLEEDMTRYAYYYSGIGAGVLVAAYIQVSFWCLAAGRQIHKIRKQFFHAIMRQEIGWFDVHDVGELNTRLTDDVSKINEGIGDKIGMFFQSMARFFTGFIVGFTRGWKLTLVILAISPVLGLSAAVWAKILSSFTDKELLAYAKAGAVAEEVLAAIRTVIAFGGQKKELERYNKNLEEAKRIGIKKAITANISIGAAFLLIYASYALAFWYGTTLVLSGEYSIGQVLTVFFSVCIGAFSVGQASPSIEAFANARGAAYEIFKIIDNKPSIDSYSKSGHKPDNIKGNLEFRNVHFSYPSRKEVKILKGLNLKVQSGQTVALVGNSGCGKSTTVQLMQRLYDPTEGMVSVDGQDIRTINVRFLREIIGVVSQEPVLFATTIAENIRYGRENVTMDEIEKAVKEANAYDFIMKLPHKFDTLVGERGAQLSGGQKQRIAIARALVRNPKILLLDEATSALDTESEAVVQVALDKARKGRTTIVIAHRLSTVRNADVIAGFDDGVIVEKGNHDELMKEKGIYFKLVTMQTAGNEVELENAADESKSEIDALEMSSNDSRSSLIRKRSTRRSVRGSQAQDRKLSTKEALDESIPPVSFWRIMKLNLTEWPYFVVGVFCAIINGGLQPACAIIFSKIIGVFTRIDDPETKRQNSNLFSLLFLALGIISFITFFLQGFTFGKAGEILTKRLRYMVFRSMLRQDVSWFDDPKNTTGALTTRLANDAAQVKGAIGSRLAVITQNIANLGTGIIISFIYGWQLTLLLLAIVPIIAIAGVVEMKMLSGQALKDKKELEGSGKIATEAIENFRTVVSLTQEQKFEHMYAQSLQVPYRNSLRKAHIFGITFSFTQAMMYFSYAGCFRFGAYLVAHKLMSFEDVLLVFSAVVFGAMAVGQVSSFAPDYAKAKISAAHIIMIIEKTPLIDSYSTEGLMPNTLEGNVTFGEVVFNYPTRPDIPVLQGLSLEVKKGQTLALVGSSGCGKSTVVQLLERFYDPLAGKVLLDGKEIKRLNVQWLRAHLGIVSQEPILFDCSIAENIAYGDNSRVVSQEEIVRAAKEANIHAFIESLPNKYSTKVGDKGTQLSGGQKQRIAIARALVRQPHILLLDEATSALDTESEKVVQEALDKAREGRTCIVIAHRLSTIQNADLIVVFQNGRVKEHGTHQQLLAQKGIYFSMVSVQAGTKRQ

[6] = biological target: ATP-dependent translocase ABCB1 (Homo sapiens, UniProt P08183, F343R/F728C/L339C); test: Inhibition of cross-linking of human Pgp TM6 F343R/TM6 L339C/TM7 F728C mutant expressed in HEK293 cells assessed as drug level causing 50% inhibition of cross linking by immunoblot; conditions: read-out: Activity
[7] = biological target: ATP-dependent translocase ABCB1 (Homo sapiens, UniProt P08183, T209C); test: Increase in ATPase activity of human histidine-tagged Pgp TM3 T209C mutant expressed in HEK293 cells at 2 mM relative to control; conditions: hek293, 2000 µM
[8] = biological target: T1, ATP-dependent translocase ABCB1 (Homo sapiens, UniProt P08183, T199C); test: Activation of ATPase activity of human histidine-tagged Pgp TM3 T199C mutant expressed in HEK293 cells assessed as drug level causing half-maximal activation; conditions: read-out: Activity
T1 sequence (P08183 whole entry T199C): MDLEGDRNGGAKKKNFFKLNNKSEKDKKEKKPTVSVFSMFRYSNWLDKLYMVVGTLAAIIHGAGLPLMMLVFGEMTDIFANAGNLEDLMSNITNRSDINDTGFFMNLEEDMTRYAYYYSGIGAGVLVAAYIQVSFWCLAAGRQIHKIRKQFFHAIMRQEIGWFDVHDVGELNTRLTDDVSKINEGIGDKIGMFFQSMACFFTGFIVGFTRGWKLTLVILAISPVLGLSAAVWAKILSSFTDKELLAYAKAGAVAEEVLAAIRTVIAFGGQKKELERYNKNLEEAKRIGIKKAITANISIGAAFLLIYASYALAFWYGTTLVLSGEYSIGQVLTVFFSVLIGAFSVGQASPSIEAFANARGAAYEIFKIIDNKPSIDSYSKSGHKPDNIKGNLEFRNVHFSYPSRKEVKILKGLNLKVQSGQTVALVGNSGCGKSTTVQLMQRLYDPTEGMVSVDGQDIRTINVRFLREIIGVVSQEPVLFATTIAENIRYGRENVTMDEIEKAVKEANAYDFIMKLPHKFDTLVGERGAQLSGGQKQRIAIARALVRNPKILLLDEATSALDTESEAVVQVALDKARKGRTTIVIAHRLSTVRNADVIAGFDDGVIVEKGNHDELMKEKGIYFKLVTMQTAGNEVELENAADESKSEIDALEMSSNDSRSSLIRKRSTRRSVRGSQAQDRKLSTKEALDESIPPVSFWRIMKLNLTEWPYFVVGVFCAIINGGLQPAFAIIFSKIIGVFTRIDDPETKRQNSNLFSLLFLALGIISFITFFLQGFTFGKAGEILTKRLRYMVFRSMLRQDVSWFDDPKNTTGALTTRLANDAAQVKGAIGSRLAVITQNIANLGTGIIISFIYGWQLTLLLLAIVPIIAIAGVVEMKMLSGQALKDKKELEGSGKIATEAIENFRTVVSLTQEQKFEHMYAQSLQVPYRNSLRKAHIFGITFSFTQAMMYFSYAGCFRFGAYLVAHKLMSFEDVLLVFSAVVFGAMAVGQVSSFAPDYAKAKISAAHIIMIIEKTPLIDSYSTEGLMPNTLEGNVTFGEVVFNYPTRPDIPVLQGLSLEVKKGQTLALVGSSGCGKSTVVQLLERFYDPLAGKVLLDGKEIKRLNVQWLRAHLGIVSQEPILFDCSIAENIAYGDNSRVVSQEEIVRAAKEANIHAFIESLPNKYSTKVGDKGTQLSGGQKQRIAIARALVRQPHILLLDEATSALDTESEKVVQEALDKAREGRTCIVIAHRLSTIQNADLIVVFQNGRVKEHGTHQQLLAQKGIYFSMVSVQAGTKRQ

[9] = biological target: ATP-dependent translocase ABCB1 (Homo sapiens, UniProt P08183, I190C); test: Increase in ATPase activity of human histidine-tagged Pgp TM3 I190C mutant expressed in HEK293 cells at 2 mM relative to control; conditions: hek293, 2000 µM
[10] = biological target: ATP-dependent translocase ABCB1 (Homo sapiens, UniProt P08183, M197C); test: Increase in ATPase activity of human histidine-tagged Pgp TM3 M197C mutant expressed in HEK293 cells at 2 mM relative to control; conditions: hek293, 2000 µM
[11] = biological target: ATP-dependent translocase ABCB1 (Homo sapiens, UniProt P08183, F208C); test: Increase in ATPase activity of human histidine-tagged Pgp TM3 F208C mutant expressed in HEK293 cells at 2 mM relative to control; conditions: hek293, 2000 µM
[12] = biological target: ATP-dependent translocase ABCB1 (Homo sapiens, UniProt P08183, S196C); test: Increase in ATPase activity of human histidine-tagged Pgp TM3 S196C mutant expressed in HEK293 cells at 2 mM relative to control; conditions: hek293, 2000 µM
[13] = biological target: ATP-dependent translocase ABCB1 (Homo sapiens, UniProt P08183, G207C); test: Increase in ATPase activity of human histidine-tagged Pgp TM3 G207C mutant expressed in HEK293 cells at 2 mM relative to control; conditions: hek293, 2000 µM
[14] = biological target: ATP-dependent translocase ABCB1 (Homo sapiens, UniProt P08183, M192C); test: Increase in ATPase activity of human histidine-tagged Pgp TM3 M192C mutant expressed in HEK293 cells at 2 mM relative to control; conditions: hek293, 2000 µM
[15] = biological target: ATP-dependent translocase ABCB1 (Homo sapiens, UniProt P08183, G203C); test: Increase in ATPase activity of human histidine-tagged Pgp TM3 G203C mutant expressed in HEK293 cells at 2 mM relative to control; conditions: hek293, 2000 µM
[16] = biological target: ATP-dependent translocase ABCB1 (Homo sapiens, UniProt P08183, F194C); test: Increase in ATPase activity of human histidine-tagged Pgp TM3 F194C mutant expressed in HEK293 cells at 2 mM relative to control; conditions: hek293, 2000 µM
[17] = biological target: ATP-dependent translocase ABCB1 (Homo sapiens, UniProt P08183, F204C); test: Increase in ATPase activity of human histidine-tagged Pgp TM3 F204C mutant expressed in HEK293 cells at 2 mM relative to control; conditions: hek293, 2000 µM
[18] = biological target: T1, ATP-dependent translocase ABCB1; test: Activation of ATPase activity of human histidine-tagged Pgp TM3 T199C mutant expressed in HEK293 cells assessed as drug level causing maximal activation
[19] = biological target: ATP-dependent translocase ABCB1 (Homo sapiens, UniProt P08183, A198C); test: Increase in ATPase activity of human histidine-tagged Pgp TM3 A198C mutant expressed in HEK293 cells at 2 mM relative to control; conditions: hek293, 2000 µM
[20] = biological target: T2, ATP-dependent translocase ABCB1 (Homo sapiens, UniProt P08183, C137A/C431A/C717A/C956A/C1074A/C1125A/C1227A); test: Activation of ATPase activity of human histidine-tagged Cys-less Pgp mutant expressed in HEK293 cells assessed as half maximal stimulation at 110 uM; conditions: hek293, 110 µM
T2 sequence (P08183 whole entry C137A/C431A/C717A/C956A/C1074A/C1125A/C1227A): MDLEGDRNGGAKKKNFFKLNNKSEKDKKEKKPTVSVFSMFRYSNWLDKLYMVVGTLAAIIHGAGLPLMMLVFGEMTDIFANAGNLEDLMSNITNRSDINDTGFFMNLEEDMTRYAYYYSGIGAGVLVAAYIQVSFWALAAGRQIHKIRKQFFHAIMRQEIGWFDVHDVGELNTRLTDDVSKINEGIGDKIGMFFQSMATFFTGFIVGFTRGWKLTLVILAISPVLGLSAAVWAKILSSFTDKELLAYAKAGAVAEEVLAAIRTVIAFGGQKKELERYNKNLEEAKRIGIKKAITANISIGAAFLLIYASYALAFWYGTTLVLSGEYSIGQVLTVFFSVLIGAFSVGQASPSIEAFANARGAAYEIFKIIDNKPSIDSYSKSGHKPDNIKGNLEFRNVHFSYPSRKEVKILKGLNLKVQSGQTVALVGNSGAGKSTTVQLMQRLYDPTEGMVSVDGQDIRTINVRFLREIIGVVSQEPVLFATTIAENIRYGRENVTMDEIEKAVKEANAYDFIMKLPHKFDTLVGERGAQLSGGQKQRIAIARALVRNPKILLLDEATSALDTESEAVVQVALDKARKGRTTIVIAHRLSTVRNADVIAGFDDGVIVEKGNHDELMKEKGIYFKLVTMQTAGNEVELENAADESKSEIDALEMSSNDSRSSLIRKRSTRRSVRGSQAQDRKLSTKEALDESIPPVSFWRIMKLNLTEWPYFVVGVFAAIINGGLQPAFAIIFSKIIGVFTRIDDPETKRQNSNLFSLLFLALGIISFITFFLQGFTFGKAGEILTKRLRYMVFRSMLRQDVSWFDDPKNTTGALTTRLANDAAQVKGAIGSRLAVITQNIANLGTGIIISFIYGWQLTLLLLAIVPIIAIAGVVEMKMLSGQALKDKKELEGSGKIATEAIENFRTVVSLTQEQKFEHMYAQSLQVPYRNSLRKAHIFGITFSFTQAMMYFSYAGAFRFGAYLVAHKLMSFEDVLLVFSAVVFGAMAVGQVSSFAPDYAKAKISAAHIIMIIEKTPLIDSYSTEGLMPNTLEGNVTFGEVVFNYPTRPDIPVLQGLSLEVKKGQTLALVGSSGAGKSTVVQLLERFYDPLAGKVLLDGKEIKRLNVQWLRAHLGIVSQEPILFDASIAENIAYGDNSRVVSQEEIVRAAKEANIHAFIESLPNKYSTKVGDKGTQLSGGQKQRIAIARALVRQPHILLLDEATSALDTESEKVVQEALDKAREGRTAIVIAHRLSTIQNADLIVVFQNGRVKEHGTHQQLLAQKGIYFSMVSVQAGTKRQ

[21] = biological target: ATP-dependent translocase ABCB1 (Homo sapiens, UniProt P08183, G191C); test: Increase in ATPase activity of human histidine-tagged Pgp TM3 G191C mutant expressed in HEK293 cells at 2 mM relative to control; conditions: hek293, 2000 µM
[22] = biological target: ATP-dependent translocase ABCB1 (Homo sapiens, UniProt P08183, I205C); test: Increase in ATPase activity of human histidine-tagged Pgp TM3 I205C mutant expressed in HEK293 cells at 2 mM relative to control; conditions: hek293, 2000 µM
[23] = biological target: ATP-dependent translocase ABCB1 (Homo sapiens, UniProt P08183, T202C); test: Increase in ATPase activity of human histidine-tagged Pgp TM3 T202C mutant expressed in HEK293 cells at 2 mM relative to control; conditions: hek293, 2000 µM
[24] = biological target: T1, ATP-dependent translocase ABCB1; test: Increase in ATPase activity of human histidine-tagged Pgp TM3 mutant T199C expressed in HEK293 cells at 2 mM relative to control; conditions: hek293, 2000 µM
[25] = biological target: ATP-dependent translocase ABCB1 (Homo sapiens, UniProt P08183, F200C); test: Increase in ATPase activity of human histidine-tagged Pgp TM3 F200C mutant expressed in HEK293 cells at 2 mM relative to control; conditions: hek293, 2000 µM
[26] = biological target: ATP-dependent translocase ABCB1 (Homo sapiens, UniProt P08183, V206C); test: Increase in ATPase activity of human histidine-tagged Pgp TM3 V206C mutant expressed in HEK293 cells at 2 mM relative to control; conditions: hek293, 2000 µM
[27] = biological target: ATP-dependent translocase ABCB1 (Homo sapiens, UniProt P08183, F201C); test: Increase in ATPase activity of human histidine-tagged Pgp TM3 F201C mutant expressed in HEK293 cells at 2 mM relative to control; conditions: hek293, 2000 µM
[28] = biological target: T2, ATP-dependent translocase ABCB1; test: Increase in ATPase activity of human histidine-tagged Pgp Cys-less mutant expressed in HEK293 cells at 2 mM relative to control; conditions: hek293, 2000 µM
[29] = biological target: ATP-dependent translocase ABCB1 (Homo sapiens, UniProt P08183, F193C); test: Increase in ATPase activity of human histidine-tagged Pgp TM3 F193C mutant expressed in HEK293 cells at 2 mM relative to control; conditions: hek293, 2000 µM
HEK293 [30] = test: Activation of ATPase activity of human Pgp TM7 Cys728 mutant expressed in HEK293 cells at 3 mM relative to control

Compound: CCN(CC)c1ccc2c(-c3ccccc3C(C)=O)c3ccc(=[N+](CC)CC)cc-3oc2c1
Activity (HEK293 [1]): 65 µM
Activity (HEK293 [2]): 88 µM

Activity [3]: 6.4
IC50 [4]: 96 µM
IC50 [5]: 77 µM
IC50 [6]: 320 µM
Compound: CCN(CC)c1ccc2c(-c3ccccc3C(=O)O)c3ccc(=[N+](CC)CC)cc-3oc2c1

Compound: CC[C@]1(O)C[C@@H]2CN(CCc3c([nH]c4ccccc34)[C@@](C(=O)OC)(c3cc4c(cc3OC)N(C)[C@H]3[C@@](O)(C(=O)OC)[C@H](OC(C)=O)[C@]5(CC)C=CCN6CC[C@]43[C@@H]65)C2)C1
Activity (HEK293 [1]): 40 µM
Activity (HEK293 [2]): 0.7 µM

Activity [7]: < 1.5
EC50 [8]: 880 µM
Activity [9]: < 1.5
Activity [10]: < 1.5
Activity [11]: < 1.5
Activity [12]: < 1.5
Activity [13]: < 1.5
Activity [14]: < 1.5
Activity [15]: < 1.5
Activity [16]: < 1.5
Activity [17]: < 1.5
Activity [18]: 2 mM
Activity [3]: < 1.5
Activity [19]: < 1.5
Activity [20]: 6.2
Activity [21]: < 1.5
Activity [22]: < 1.5
Activity [23]: < 1.5
Activity [24]: < 6.7
Activity [25]: < 1.5
Activity [26]: < 1.5
Activity [27]: < 1.5
Activity [28]: < 1.5
Activity [29]: < 1.5
Compound: CCN(CC)c1ccc2c(-c3ccc(S(=O)(=O)NCCSS(C)(=O)=O)cc3S(=O)(=O)O)c3ccc(=[N+](CC)CC)cc-3oc2c1.[Cl-]

Compound: COc1ccc(CC[N+](C)(CCCC(C#N)(c2ccc(OC)c(OC)c2)C(C)C)CCSS(C)(=O)=O)cc1OC (stereo not drawn)
Activity (HEK293 [30]): inactive

Source: ChEMBL document CHEMBL1156511, “Suppressor mutations in the transmembrane segments of P-glycoprotein promote maturation of processing mutants and disrupt a subset of drug-binding sites” (J Biol Chem, 2007)
